# Reference: US6002023A, “2-debenzoyl-2-acyl taxol derivatives and method for making same” (Virginia Tech Intellectural Properties, Inc., priority 1997, dated 1999)
# Assays:
# [1] = system: P-388 lymphocytic leukemia cells; assay: cytotoxicity, cell culture assay using P-388 lymphocytic leukemia cells, compared with taxol; assay type: cell-based; conditions: for ED50 /ED50 (taxol): P-388 leukemia, value of less than 1 = more active than taxol; for biological activity as compared with taxol (in words): P-388 cell culture assay; for antineoplastic activity relative to taxol, cell culture assay (P-388 leukemia in vitro): fold activity versus taxol
# Excerpt: Acylation of 22 with various aromatic carboxylic acids in the presence of dicyclohexylcarbodiimide and 4-pyrrolidinopyridine has led to the preparation of various 2-debenzoyl-2-acyl taxols 13. […] For details of the cell culture assay, see Abbott, B. J., "Protocol 14 of Instruction 275," National Cancer Institute, National Institutes of Health, Jan. 24, 1978.
# [2] = system: ovarian cancer and breast cancer; conditions: cited from earlier work
# [3] = system: non-small cell lung cancer; conditions: preliminary studies; cited from earlier work
structure (smiles),measurement,setting,value
CC(=O)O[C@H]1C(=O)[C@@]2(C)[C@H]([C@H](OC(=O)c3cccc(N)c3)[C@]3(O)C[C@H](OC(=O)[C@H](O)[C@@H](NC(=O)c4ccccc4)c4ccccc4)C(C)=C1C3(C)C)[C@]1(OC(C)=O)CO[C@@H]1C[C@@H]2O [Compound 13a],ED50 /ED50 (taxol),[1],1500
CC(=O)O[C@H]1C(=O)[C@@]2(C)[C@H]([C@H](OC(=O)c3ccc(C#N)cc3)[C@]3(O)C[C@H](OC(=O)[C@H](O)[C@@H](NC(=O)c4ccccc4)c4ccccc4)C(C)=C1C3(C)C)[C@]1(OC(C)=O)CO[C@@H]1C[C@@H]2O [Compound 13aa],ED50 /ED50 (taxol),[1],30
CC(=O)O[C@H]1C(=O)[C@@]2(C)[C@H]([C@H](OC(=O)/C=C/c3ccccc3)[C@]3(O)C[C@H](OC(=O)[C@H](O)[C@@H](NC(=O)c4ccccc4)c4ccccc4)C(C)=C1C3(C)C)[C@]1(OC(C)=O)CO[C@@H]1C[C@@H]2O [Compound 13b],biological activity as compared with taxol (in words),[1],less active or about as active as taxol
same,ED50 /ED50 (taxol),[1],10
CC(=O)O[C@H]1C(=O)[C@@]2(C)[C@H]([C@H](OC(=O)c3ccc(Cl)cc3)[C@]3(O)C[C@H](OC(=O)[C@H](O)[C@@H](NC(=O)c4ccccc4)c4ccccc4)C(C)=C1C3(C)C)[C@]1(OC(C)=O)CO[C@@H]1C[C@@H]2O [Compound 13bb],ED50 /ED50 (taxol),[1],150
CC(=O)O[C@H]1C(=O)[C@@]2(C)[C@H]([C@H](OC(=O)c3cccc([N+](=O)[O-])c3)[C@]3(O)C[C@H](OC(=O)[C@H](O)[C@@H](NC(=O)c4ccccc4)c4ccccc4)C(C)=C1C3(C)C)[C@]1(OC(C)=O)CO[C@@H]1C[C@@H]2O [Compound 13c],biological activity as compared with taxol (in words),[1],much greater biological activity than taxol
same,ED50 /ED50 (taxol),[1],0.3
CSc1ccc(C(=O)O[C@H]2[C@@H]3[C@]4(OC(C)=O)CO[C@@H]4C[C@H](O)[C@@]3(C)C(=O)[C@H](OC(C)=O)C3=C(C)[C@@H](OC(=O)[C@H](O)[C@@H](NC(=O)c4ccccc4)c4ccccc4)C[C@]2(O)C3(C)C)cc1 [Compound 13cc],ED50 /ED50 (taxol),[1],12
CC(=O)OC1C(=O)C2(C)C(O)CC3OCC3(OC(C)=O)C2C(OC(=O)c2cccc(Cl)c2)C2(O)CC(OC(=O)C(O)C(NC(=O)c3ccccc3)c3ccccc3)C(C)=C1C2(C)C (stereo not drawn) [Compound 13d],biological activity as compared with taxol (in words),[1],much greater biological activity than taxol
same,ED50 /ED50 (taxol),[1],0.1
CC(=O)O[C@H]1C(=O)[C@@]2(C)[C@H]([C@H](OC(=O)c3ccc([N+](=O)[O-])cc3)[C@]3(O)C[C@H](OC(=O)[C@H](O)[C@@H](NC(=O)c4ccccc4)c4ccccc4)C(C)=C1C3(C)C)[C@]1(OC(C)=O)CO[C@@H]1C[C@@H]2O [Compound 13dd],ED50 /ED50 (taxol),[1],8.3
CC(=O)OC1C(=O)C2(C)C(O)CC3OCC3(OC(C)=O)C2C(OC(=O)c2cc([N+](=O)[O-])cc([N+](=O)[O-])c2)C2(O)CC(OC(=O)C(O)C(NC(=O)c3ccccc3)c3ccccc3)C(C)=C1C2(C)C (stereo not drawn) [Compound 13e],ED50 /ED50 (taxol),[1],2.0
CC(=O)O[C@H]1C(=O)[C@@]2(C)[C@H]([C@H](OC(=O)c3ccc(C(F)(F)F)cc3)[C@]3(O)C[C@H](OC(=O)[C@H](O)[C@@H](NC(=O)c4ccccc4)c4ccccc4)C(C)=C1C3(C)C)[C@]1(OC(C)=O)CO[C@@H]1C[C@@H]2O [Compound 13ee],ED50 /ED50 (taxol),[1],30
"CC(=O)O[C@H]1C(=O)[C@@]2(C)[C@H]([C@H](OC(=O)c3cccc(N=[N+]=[N-])c3)[C@]3(O)C[C@H](OC(=O)[C@H](O)[C@@H](NC(=O)c4ccccc4)c4ccccc4)C(C)=C1C3(C)C)[C@]1(OC(C)=O)CO[C@@H]1C[C@@H]2O [Compound 13f, 2-debenzoyl-2-(m-azidobenzoyl)taxol]",biological activity as compared with taxol (in words),[1],much greater biological activity than taxol
same,ED50 /ED50 (taxol),[1],0.002
same,"antineoplastic activity relative to taxol, cell culture assay (P-388 leukemia in vitro)",[1],500 times
CC(=O)O[C@H]1C(=O)[C@@]2(C)[C@H]([C@H](OC(=O)c3ccc(C(C)=O)cc3)[C@]3(O)C[C@H](OC(=O)[C@H](O)[C@@H](NC(=O)c4ccccc4)c4ccccc4)C(C)=C1C3(C)C)[C@]1(OC(C)=O)CO[C@@H]1C[C@@H]2O [Compound 13ff],ED50 /ED50 (taxol),[1],30
COc1cc(C(=O)O[C@H]2[C@@H]3[C@]4(OC(C)=O)CO[C@@H]4C[C@H](O)[C@@]3(C)C(=O)[C@H](OC(C)=O)C3=C(C)[C@@H](OC(=O)[C@H](O)[C@@H](NC(=O)c4ccccc4)c4ccccc4)C[C@]2(O)C3(C)C)cc(OC)c1OC [Compound 13g],ED50 /ED50 (taxol),[1],0.5
CC(=O)O[C@H]1C(=O)[C@@]2(C)[C@H]([C@H](OC(=O)c3cccc(C#N)c3)[C@]3(O)C[C@H](OC(=O)[C@H](O)[C@@H](NC(=O)c4ccccc4)c4ccccc4)C(C)=C1C3(C)C)[C@]1(OC(C)=O)CO[C@@H]1C[C@@H]2O [Compound 13h],ED50 /ED50 (taxol),[1],0.25
CC(=O)O[C@H]1C(=O)[C@@]2(C)[C@H]([C@H](OC(=O)c3cccc(C(F)(F)F)c3)[C@]3(O)C[C@H](OC(=O)[C@H](O)[C@@H](NC(=O)c4ccccc4)c4ccccc4)C(C)=C1C3(C)C)[C@]1(OC(C)=O)CO[C@@H]1C[C@@H]2O [Compound 13i],ED50 /ED50 (taxol),[1],15
CC(=O)O[C@H]1C(=O)[C@@]2(C)[C@H]([C@H](OC(=O)c3cccc(F)c3)[C@]3(O)C[C@H](OC(=O)[C@H](O)[C@@H](NC(=O)c4ccccc4)c4ccccc4)C(C)=C1C3(C)C)[C@]1(OC(C)=O)CO[C@@H]1C[C@@H]2O [Compound 13j],ED50 /ED50 (taxol),[1],0.35
CC(=O)OC1C(=O)C2(C)C(O)CC3OCC3(OC(C)=O)C2C(OC(=O)c2cccs2)C2(O)CC(OC(=O)C(O)C(NC(=O)c3ccccc3)c3ccccc3)C(C)=C1C2(C)C (stereo not drawn) [Compound 13k],ED50 /ED50 (taxol),[1],10
CC(=O)O[C@H]1C(=O)[C@@]2(C)[C@H]([C@H](OC(=O)c3ccc(Cl)c(Cl)c3)[C@]3(O)C[C@H](OC(=O)[C@H](O)[C@@H](NC(=O)c4ccccc4)c4ccccc4)C(C)=C1C3(C)C)[C@]1(OC(C)=O)CO[C@@H]1C[C@@H]2O [Compound 13m],ED50 /ED50 (taxol),[1],0.003
CC(=O)O[C@H]1C(=O)[C@@]2(C)[C@H]([C@H](OC(=O)c3cccc(C)c3)[C@]3(O)C[C@H](OC(=O)[C@H](O)[C@@H](NC(=O)c4ccccc4)c4ccccc4)C(C)=C1C3(C)C)[C@]1(OC(C)=O)CO[C@@H]1C[C@@H]2O [Compound 13n],ED50 /ED50 (taxol),[1],0.04
CC(=O)O[C@H]1C(=O)[C@@]2(C)[C@H]([C@H](OC(=O)c3ccccc3Cl)[C@]3(O)C[C@H](OC(=O)[C@H](O)[C@@H](NC(=O)c4ccccc4)c4ccccc4)C(C)=C1C3(C)C)[C@]1(OC(C)=O)CO[C@@H]1C[C@@H]2O [Compound 13o],biological activity as compared with taxol (in words),[1],increased bioactivity as compared with taxol
same,ED50 /ED50 (taxol),[1],0.011
COc1cccc(C(=O)O[C@H]2[C@@H]3[C@]4(OC(C)=O)CO[C@@H]4C[C@H](O)[C@@]3(C)C(=O)[C@H](OC(C)=O)C3=C(C)[C@@H](OC(=O)[C@H](O)[C@@H](NC(=O)c4ccccc4)c4ccccc4)C[C@]2(O)C3(C)C)c1 [Compound 13p],ED50 /ED50 (taxol),[1],0.0004
CC(=O)O[C@H]1C(=O)[C@@]2(C)[C@H]([C@H](OC(=O)c3cccc(Oc4ccccc4)c3)[C@]3(O)C[C@H](OC(=O)[C@H](O)[C@@H](NC(=O)c4ccccc4)c4ccccc4)C(C)=C1C3(C)C)[C@]1(OC(C)=O)CO[C@@H]1C[C@@H]2O [Compound 13r],ED50 /ED50 (taxol),[1],4.3
CC(=O)O[C@H]1C(=O)[C@@]2(C)[C@H]([C@H](OC(=O)c3cccc(I)c3)[C@]3(O)C[C@H](OC(=O)[C@H](O)[C@@H](NC(=O)c4ccccc4)c4ccccc4)C(C)=C1C3(C)C)[C@]1(OC(C)=O)CO[C@@H]1C[C@@H]2O [Compound 13s],ED50 /ED50 (taxol),[1],0.028
"CC(=O)O[C@H]1C(=O)[C@@]2(C)[C@H]([C@H](OC(=O)c3cc(F)cc(F)c3)[C@]3(O)C[C@H](OC(=O)[C@H](O)[C@@H](NC(=O)c4ccccc4)c4ccccc4)C(C)=C1C3(C)C)[C@]1(OC(C)=O)CO[C@@H]1C[C@@H]2O [Compound 13t, 2-debenzoyl-2-(3,5-difluorobenzoyl)taxol]",ED50 /ED50 (taxol),[1],0.00004
same,"antineoplastic activity relative to taxol, cell culture assay (P-388 leukemia in vitro)",[1],"25,000 times"
same,"antineoplastic activity relative to taxol, cell culture assay (P-388 leukemia in vitro)",[1]; listed as drawing 14,"about 25,000 times"
CC(=O)O[C@H]1C(=O)[C@@]2(C)[C@H]([C@H](OC(=O)c3ccc4ccccc4c3)[C@]3(O)C[C@H](OC(=O)[C@H](O)[C@@H](NC(=O)c4ccccc4)c4ccccc4)C(C)=C1C3(C)C)[C@]1(OC(C)=O)CO[C@@H]1C[C@@H]2O [Compound 13u],ED50 /ED50 (taxol),[1],10
CC(=O)O[C@H]1C(=O)[C@@]2(C)[C@H]([C@H](OC(=O)c3ccoc3)[C@]3(O)C[C@H](OC(=O)[C@H](O)[C@@H](NC(=O)c4ccccc4)c4ccccc4)C(C)=C1C3(C)C)[C@]1(OC(C)=O)CO[C@@H]1C[C@@H]2O [Compound 13v],ED50 /ED50 (taxol),[1],1.4
CC(=O)O[C@H]1C(=O)[C@@]2(C)[C@H]([C@H](OC(C)=O)[C@]3(O)C[C@H](OC(=O)[C@H](O)[C@@H](NC(=O)c4ccccc4)c4ccccc4)C(C)=C1C3(C)C)[C@]1(OC(C)=O)CO[C@@H]1C[C@@H]2O [Compound 13w],ED50 /ED50 (taxol),[1],28
CC(=O)O[C@H]1C(=O)[C@@]2(C)[C@H]([C@H](OC(=O)COc3ccccc3)[C@]3(O)C[C@H](OC(=O)[C@H](O)[C@@H](NC(=O)c4ccccc4)c4ccccc4)C(C)=C1C3(C)C)[C@]1(OC(C)=O)CO[C@@H]1C[C@@H]2O [Compound 13x],ED50 /ED50 (taxol),[1],0.7
CC(=O)O[C@H]1C(=O)[C@@]2(C)[C@H]([C@H](OC(=O)c3ccc(F)cc3)[C@]3(O)C[C@H](OC(=O)[C@H](O)[C@@H](NC(=O)c4ccccc4)c4ccccc4)C(C)=C1C3(C)C)[C@]1(OC(C)=O)CO[C@@H]1C[C@@H]2O [Compound 13y],ED50 /ED50 (taxol),[1],0.5
CC(=O)O[C@H]1C(=O)[C@@]2(C)[C@H]([C@H](OC(=O)c3ccccc3)[C@]3(O)C[C@H](OC(=O)[C@H](O)[C@@H](NC(=O)c4ccccc4)c4ccccc4)C(C)=C1C3(C)C)[C@]1(OC(C)=O)CO[C@@H]1C[C@@H]2O [Taxol],clinical activity,[2],excellent clinical activity
same,clinical activity,[3],good activity
